# Results taken from patent publication US9751845B2, “5-HT2B antagonists” (National Institute of Biological Sciences, Beijing, priority 2014, dated 2017).
# Molecular target: T1, 5-HT2B Receptors (Homo sapiens, UniProt P41595)
# T1 construct: expressed in transfected cells
# Experiment: Antagonist activity assay (FLIPR, CHO-K1/5-HT2B stable cell line)
# Assay type: cell-based
# Settings: for inhibition at 1 µM: 1 μM compound, CHO-K1/5-HT2B cells stimulated with 12 nM (EC80) 5-HT; for IC50: CHO-K1/5-HT2B cells, antagonist mode vs EC80 5-HT
# Protocol: Briefly, CHO-K1 cells expressing 5-HT2B were seeded in a 384-well black-wall, clear-bottom plate at a density of 20,000 cells per well in 20 μL of growth medium (10% dialyzed FBS+90% F12), 18 hours prior to the day of experiment and maintained at 37° C./5% CO2. 20 μL of dye-loading solution and 10 μL of tested compound solution (at concentrations five times to the final assay concentrations) were added into the well. Then the plate was placed into a 37° C. incubator for 60 minutes, followed by 15 minutes at room temperature. At last, 12.5 μL of control agonist (at concentrations five times to the EC80 concentrations) was added. The control agonist was added to reading plate at 20 s and the fluorescence signal was monitored for an additional 100 s (21 s to 120 s). In screening, cells stimulated with assay buffer (HBSS-HEPES) containing 0.1% DMSO were chosen as background; cell stimulated with 12 nM (EC80 of the cell line) of 5-HT were chosen as the agonist control; cell treated with SB206553 were chosen as positive control of the screening.
# Data acquisition and analyses are performed using ScreenWorks (version 3.1) program. The average fluorescent intensity value during 1 s to 20 s calculated as the baseline reading. The relative fluorescent units (ΔRFU) intensity values were calculated with the maximal fluorescent units (21 s to 120 s) subtracting the average value of baseline reading. The % inhibition of the test article is calculated from the following equation: % inhibition=[1−(ΔRFUCompound−ΔRFUBackground)/(ΔRFUAgonist control−ΔRFUBackground)]*100
# T1 sequence (P41595 whole entry): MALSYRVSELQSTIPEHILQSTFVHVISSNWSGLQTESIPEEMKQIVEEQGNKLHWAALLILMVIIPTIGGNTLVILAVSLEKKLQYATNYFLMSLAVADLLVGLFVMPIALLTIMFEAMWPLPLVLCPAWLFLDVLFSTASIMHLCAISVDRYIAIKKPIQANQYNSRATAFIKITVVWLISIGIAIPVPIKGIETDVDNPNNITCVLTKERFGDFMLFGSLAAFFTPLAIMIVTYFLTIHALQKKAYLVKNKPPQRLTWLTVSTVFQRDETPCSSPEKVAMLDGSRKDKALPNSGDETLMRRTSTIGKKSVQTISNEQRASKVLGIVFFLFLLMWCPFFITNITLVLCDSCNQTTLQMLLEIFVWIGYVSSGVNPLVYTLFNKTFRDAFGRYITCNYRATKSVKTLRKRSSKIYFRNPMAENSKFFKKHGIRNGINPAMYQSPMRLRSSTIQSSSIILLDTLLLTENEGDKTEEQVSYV
inhibition at 1 µM [%],IC50 [nM],SMILES
< 50,–,COc1ccccc1NC1=NC(N)=NC2(CCCC2)N1 [1-h]
63.4 ± 15.1,1060,COc1cccc(NC2=NC(N)=NC3(CCCC3)N2)c1 [2-a]
< 50,–,Cc1ccc(C)c(NC2=NC(N)=NC3(CCCC3)N2)c1 [2-c]
< 50,–,Cc1cccc(C)c1NC1=NC(N)=NC2(CCCC2)N1 [2-d]
< 50,–,Cc1ccccc1NC1=NC(N)=NC2(CCCCC2)N1 [3-b]
< 50,–,COc1ccccc1NC1=NC(N)=NC2(CCCCC2)N1 [3-c]
90.9 ± 2.9,–,NC1=NC2(CCCCC2)NC(Nc2cccc(F)c2)=N1 [3-d]
~95.5,–,NC1=NC2(CCCCC2)NC(Nc2cccc(Cl)c2)=N1 [3-e1]
102 ± 4.5,–,NC1=NC2(CCCCC2)NC(Nc2cccc(I)c2)=N1 [3-f]
84.6 ± 1.2,280,COc1cccc(NC2=NC(N)=NC3(CCCCC3)N2)c1 [3-g]
50.2 ± 8,486,Cc1ccc(NC2=NC(N)=NC3(CCCCC3)N2)cc1 [3-m]
< 50,–,NC1=NC2(CCCCC2)NC(Nc2ccc(F)cc2F)=N1 [3-q]
66.5 ± 2.1,–,NC1=NC2(CCCCC2)NC(Nc2ccc(F)c(F)c2)=N1 [3-r]
95.7 ± 1.9,177,Cc1ccc(NC2=NC(N)=NC3(CCCCC3)N2)cc1C [3-s]
69.1 ± 2.7,476,Cc1cc(C)cc(NC2=NC(N)=NC3(CCCCC3)N2)c1 [3-t]
81.1 ± 6.7,622,COc1ccc(OC)c(NC2=NC(N)=NC3(CCCCC3)N2)c1 [3-u]
108 ± 1.5,–,CCOC(=O)c1cc(NC2=NC(N)=NC3(CCCCC3)N2)ccc1C [3-v]

# Continued, compound first:
SMILES,inhibition at 1 µM [%],IC50 [nM]
CC1(C)N=C(N)N=C(Nc2ccccc2)N1 [1-a],< 50,–
COc1ccccc1NC1=NC(N)=NC(C)(C)N1 [1-b],< 50,–
CC1(C)N=C(N)N=C(Nc2cccc(Br)c2)N1 [1-c],75.9 ± 11.5,328
CC1(C)N=C(N)N=C(Nc2ccc(Cl)cc2)N1 [1-d],93.1 ± 4.2,1640
CC1(C)N=C(N)N=C(Nc2ccc(Br)cc2)N1 [1-e],< 50,–
CC1(C)N=C(N)N=C(Nc2ccc(I)cc2)N1 [1-f],< 50,2510
CCOc1ccc(NC2=NC(N)=NC(C)(C)N2)cc1 [1-g],< 50,–
Cc1cccc(NC2=NC(N)=NC3(CCCC3)N2)c1 [1-i],< 50,–
NC1=NC2(CCCC2)NC(Nc2ccc(F)cc2)=N1 [2-b],< 50,–
NC1=NC2(CCCCC2)NC(Nc2ccccc2)=N1 [3-a],< 50,–
NC1=NC2(CCCCC2)NC(Nc2cccc(Br)c2)=N1 [3-e2],97.4 ± 2.2,33.4
NC1=NC2(CCCCC2)NC(Nc2cccc(C(=O)O)c2)=N1 [3-h],< 50,–
CCOC(=O)c1cccc(NC2=NC(N)=NC3(CCCCC3)N2)c1 [3-i],107.2 ± 0.6,27.3
"CCNC(=O)c1cccc(NC2=NC(N)=NC3(CCCCC3)N2)c1 [3-j, 3-(4-amino-1,3,5-triazaspiro[5.5]undeca-2,4-dien-2-ylamino)-N-ethylbenzamide]",95.5 ± 4.8,104
CCCOC(=O)c1cccc(NC2=NC(N)=NC3(CCCCC3)N2)c1 [3-k],110 ± 2.7,18.1
CCN(CC)C(=O)c1cccc(NC2=NC(N)=NC3(CCCCC3)N2)c1 [3-l],< 50,–
NC1=NC2(CCCCC2)NC(Nc2ccc(Cl)cc2)=N1 [3-n],57.2 ± 5.4,531
CN(C)c1ccc(NC2=NC(N)=NC3(CCCCC3)N2)cc1 [3-o],< 50,–
CCOC(=O)c1ccc(NC2=NC(N)=NC3(CCCCC3)N2)cc1 [3-p],109 ± 4.2,–
CCOC(=O)c1cc(NC2=NC(N)=NC3(CCCCC3)N2)cc(Br)c1C [3-w],92.8 ± 3.1,–
"CCOC(=O)c1cccc(NC2=NC(NC)=NC3(CCCCC3)N2)c1 [3-x, ethyl 3-(4-(methylamino)-1,3,5-triazaspiro[5.5]undeca-2,4-dien-2-ylamino)benzoate]",108,49.4
CCOC(=O)c1cccc(NC2=NC(N(C)C)=NC3(CCCCC3)N2)c1 [3-y],91.8 ± 0.4,284
CCCC(=O)c1cccc(NC2=NC(N)=NC3(CCCCC3)N2)c1 [3-z],106 ± 0.8,35.8
